Measurements published in publication PMC11513923, “Discovery of ZLC491 as a Potent, Selective, and Orally Bioavailable CDK12/13 PROTAC Degrader” (Journal of Medicinal Chemistry, 2024).
Entries after “also recorded” stand apart in the source; their conditions may differ. Read-outs that look alike come from different tables or passages of the source.

What was measured:
[1] = set-up: method as in doi:10.1200/JCO.2020.38.15_suppl.3500, PMID 26200936; conditions: cited from earlier work
MDA-MB-231 cells = assay: Drug combination assay with ZLC491; type: cell-based, human
Method: (A) Transcription level of DDR genes in MDA-MB-231 cells determined by RT-qPCR upon the treatment with vehicle or ZLC491 at different doses for 12 h, ROR1 was used as a negative control; (B) immunoblotting of DDR proteins in MDA-MB-231 cells after the treatment of ZLC491 at different doses for 48 h; (C) cell antiproliferative activity of ZLC491 in multiple TNBC cells as well as several noncancerous cells. Cells were treated with the compound for 5 days; (D,E) antiproliferative potency of cisplatin or olaparib alone or combined with ZLC491 at different doses in MDA-MB-231 cells for 5 days. Data are plotted using the percentage of absorbance relative to DMSO controls. (F) IC50 values and combination index (CI) in drug combination assay. In this model, CI scores estimate the interaction between the two drugs. If CI < 1, the drugs have a synergistic effect and if CI > 1, the drugs have an antagonistic effect. CI = 1 means the drugs have an additive effect. ^aThe drug combination in the table refers to the starting concentration of the two combined drugs, that would both go through serial dilution when treating cells.
Tested cells were plated in 96-well or 384-well plates and incubated at 37 °C with or without 5% CO2. […] Cell proliferation was measured 5 days after compound treatment using Cell Counting Kit-8 (Selleck) according to the manufacturer’s instructions. […]

CDK12/13 = assay: Immunoblotting of CDK12/13 in MDA-MB-231 cells (time course, negative control, series comparison); type: cell-based, human; conditions: 1 μM, 10 h
Method: (§1) To further characterize the compound, we determined the half-degradation concentration (DC50) values of ZLC491 in MDA-MB-231 cells. […] We also treated MDA-MB-231 cells with 1 μM ZLC491 at various time points.
(§2) (A) Immunoblotting of CDK12 and CDK13 in MDA-MB-231 cells treated with increasing concentrations of ZLC491 for 15 h (left). Percent remaining CDK12 and CDK13 proteins were plotted for DC50 determination (right). Protein levels were quantified using ImageJ and normalized to corresponding α-tubulin, then plotted using Graphpad Prism 8.0. The data were representative of three independent experiments; (B) immunoblotting of CDK12 and CDK13 proteins in MDA-MB-231 cells treated with ZLC491 for various time points; immunoblotting of CDK12 and CDK13 in HCC38 (C) and MDA-MB-436 (D) cells treated with increasing concentrations of ZLC491 for 15 h. α-Tubulin was used as a loading control. TEXT PRINTED IN THE PICTURE: (A) ZLC491: MDA-MB-231: CDK12 DC50 = 0.032μM; MDA-MB-231: CDK13 DC50 = 0.028μM DOUBTS OF THE COPYIST ABOUT THIS PICTURE: ZLC491, CDK12 DC50: 0.032 read from small print, the digits 3 and 2 are uncertain / ZLC491, CDK13 DC50: 0.028 read from small print, the last digit may be 8, 6 or 3
Figure 4 ZLC491 induced CDK12/13 degradation in a CRBN- and proteasome-dependent fashion. […]

[2] = tested on: TNBC cells and noncancerous cells; assay: Cell proliferation assay of the negative control in multiple TNBC and noncancerous cells; type: cell-based, human; conditions: multiple TNBC and noncancerous cell lines, 5 days
Method: The antiproliferative effects of ZLC491 against TNBC cells were also evaluated. […] We thus investigated the synergistic effects of ZLC491 with DNA cross-linker cisplatin.
Tested cells were plated in 96-well or 384-well plates and incubated at 37 °C with or without 5% CO2. After overnight incubation, serial dilutions of compounds were added to the plate. Cell proliferation was measured 5 days after compound treatment using Cell Counting Kit-8 (Selleck) according to the manufacturer’s instructions.
Figure S3. Immunoblotting of CCNK in MDA-MB-231 cells treated with increasing concentrations of ZLC491 for 15 h.
Figure S4. Cell antiproliferative activity of ZLC491N in multiple TNBC cells as well as noncancerous cells. Cells were treated with the compound for 5 days. […]

CDK12 = CDK12 (Homo sapiens, UniProt Q9NYV4); assay: CDK12 degradation in MDA-MB-231 cells by immunoblotting; type: cell-based; set-up: Immunoblotting of CDK12 and CDK13 in MDA-MB-231 cells treated with increasing concentrations of ZLC491 for 15 h; endogenous in cells; host or cells: MDA-MB-231; conditions: MDA-MB-231 cells, 0.3 μM, 15 h, immunoblotting, normalized against α-tubulin
Method: (§3) The degradation efficiency of the new molecules was assessed by immunoblotting after treatment with the compounds at 0.3 μM in MD-MBA-231 cells for 15 h.
as §1, §2
(§4) Generally, the tested cells were washed by ice-cold PBS buffer (Gibco) and lysed with an SDS lysis buffer (62.5 mM Tris, 2% w/v SDS, 10 glycerol, 50 mM DTT, 0.01% w/v bromophenol blue) on ice, after which the protein lysate samples were collected to 1.5 mL microcentrifuge tubes and treated with ultrasonic for 10 s, following with a 100 °C incubation for 10 min and a 4 °C centrifugation of 12000 rpm for 10 min. An equal amount of protein was loaded to 4–8% Bis-Tris gels and underwent an SDS-PAGE electrophoresis at 55V for 30 min and 95V for 90 min. Proteins on gels were then transferred to a polyvinylidene difluoride (PVDF) membrane (Bio-Rad) with a wet electro transfer system (Bio-Rad). The PVDF membrane was cut into bands and incubated in a blocking reagent (5% defatted milk powder dissolved in TBST) at room temperature for 1–2 h. Incubate membrane and primary antibody (at the appropriate dilution and diluent as recommended in the product webpage) at 4 °C for 12–14 h, followed with three times washes by TBST. The washed membranes were incubated in a secondary antibody solution (HRP-linked antirabbit IgG or antimouse IgG (CST), 1:2000 diluted into TBST) at room temperature for 2 h. Membranes were photographed in Amersham Imager 800 system using StarSignal plus regent (GenStar) or Omni-ECL reagent (EpiZyme). Compounds MG132, MLN4924, Bafilomycin A1 and pomalidomide were purchased from MedChemExpress (MCE) LLC.

CDK13 = molecular target: T1, CDK13 (Homo sapiens, UniProt Q14004); assay: CDK13 degradation in MDA-MB-231 cells by immunoblotting; type: cell-based; conditions: MDA-MB-231 cells, 0.3 μM, 15 h, immunoblotting, normalized against α-tubulin;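 also: percent of CDK13 protein degraded relative to DMSO control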
T1 construct: Immunoblotting of CDK12 and CDK13 in MDA-MB-231 cells treated with increasing concentrations of ZLC491 for 15 h; endogenous in cells; host or cells: MDA-MB-231
Method: as §3, §1, §2, §4

[3] = set-up: method as in PMID 35938508; conditions: rats; cited from earlier work

Sequence of CDK12 (Q9NYV4 whole entry): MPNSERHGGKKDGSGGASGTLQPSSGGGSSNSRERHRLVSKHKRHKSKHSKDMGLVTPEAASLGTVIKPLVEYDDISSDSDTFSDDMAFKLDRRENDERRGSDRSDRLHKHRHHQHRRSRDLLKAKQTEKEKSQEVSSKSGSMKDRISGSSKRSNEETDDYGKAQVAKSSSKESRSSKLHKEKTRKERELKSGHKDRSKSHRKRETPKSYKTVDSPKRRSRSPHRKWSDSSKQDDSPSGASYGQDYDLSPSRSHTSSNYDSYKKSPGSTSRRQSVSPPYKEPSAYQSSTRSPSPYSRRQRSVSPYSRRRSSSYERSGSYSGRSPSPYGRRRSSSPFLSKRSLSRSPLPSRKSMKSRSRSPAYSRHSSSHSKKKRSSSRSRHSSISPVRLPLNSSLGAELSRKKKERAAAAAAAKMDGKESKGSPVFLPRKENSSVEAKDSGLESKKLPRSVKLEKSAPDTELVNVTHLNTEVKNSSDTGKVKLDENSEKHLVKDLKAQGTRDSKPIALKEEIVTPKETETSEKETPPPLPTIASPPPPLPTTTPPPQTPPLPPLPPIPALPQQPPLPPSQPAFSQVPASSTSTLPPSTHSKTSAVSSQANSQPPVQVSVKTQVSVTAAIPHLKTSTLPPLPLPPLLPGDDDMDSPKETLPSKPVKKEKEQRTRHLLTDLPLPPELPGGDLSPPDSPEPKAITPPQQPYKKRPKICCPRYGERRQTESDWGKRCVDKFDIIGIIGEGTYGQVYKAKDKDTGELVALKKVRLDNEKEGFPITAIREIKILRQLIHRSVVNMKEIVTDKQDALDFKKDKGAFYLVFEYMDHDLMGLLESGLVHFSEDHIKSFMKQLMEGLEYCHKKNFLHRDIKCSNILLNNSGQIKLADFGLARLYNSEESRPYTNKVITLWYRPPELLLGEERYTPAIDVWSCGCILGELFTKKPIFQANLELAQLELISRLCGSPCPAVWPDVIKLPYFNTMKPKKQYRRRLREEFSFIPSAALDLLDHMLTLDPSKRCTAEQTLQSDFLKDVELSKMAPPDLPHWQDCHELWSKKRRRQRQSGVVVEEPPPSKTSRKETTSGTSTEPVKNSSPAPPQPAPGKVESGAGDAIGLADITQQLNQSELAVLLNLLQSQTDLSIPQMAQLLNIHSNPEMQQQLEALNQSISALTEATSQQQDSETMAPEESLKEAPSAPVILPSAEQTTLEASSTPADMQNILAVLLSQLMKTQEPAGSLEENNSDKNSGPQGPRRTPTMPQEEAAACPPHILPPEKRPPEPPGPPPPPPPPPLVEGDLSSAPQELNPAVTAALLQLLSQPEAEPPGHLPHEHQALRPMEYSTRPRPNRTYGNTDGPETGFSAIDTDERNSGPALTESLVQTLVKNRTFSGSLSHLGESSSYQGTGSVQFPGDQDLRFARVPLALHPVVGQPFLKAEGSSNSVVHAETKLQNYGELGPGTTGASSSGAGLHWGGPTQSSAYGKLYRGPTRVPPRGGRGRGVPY
Sequence of CDK12 (O75909 whole entry partner): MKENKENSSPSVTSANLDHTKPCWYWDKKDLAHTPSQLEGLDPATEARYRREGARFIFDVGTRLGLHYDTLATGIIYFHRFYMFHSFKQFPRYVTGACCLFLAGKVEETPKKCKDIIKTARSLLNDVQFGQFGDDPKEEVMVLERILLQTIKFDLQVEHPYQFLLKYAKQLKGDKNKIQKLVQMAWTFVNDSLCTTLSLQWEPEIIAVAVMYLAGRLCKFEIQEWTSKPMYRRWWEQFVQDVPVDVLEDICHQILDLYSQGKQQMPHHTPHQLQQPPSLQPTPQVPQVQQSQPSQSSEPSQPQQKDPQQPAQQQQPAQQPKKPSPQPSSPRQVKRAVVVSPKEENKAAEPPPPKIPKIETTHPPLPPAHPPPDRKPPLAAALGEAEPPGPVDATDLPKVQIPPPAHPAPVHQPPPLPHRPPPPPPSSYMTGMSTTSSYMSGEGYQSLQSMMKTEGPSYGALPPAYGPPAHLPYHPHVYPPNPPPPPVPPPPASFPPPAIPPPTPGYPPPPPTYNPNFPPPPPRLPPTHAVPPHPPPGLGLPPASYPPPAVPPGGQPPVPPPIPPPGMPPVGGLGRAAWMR
T1 sequence (Q14004 whole entry): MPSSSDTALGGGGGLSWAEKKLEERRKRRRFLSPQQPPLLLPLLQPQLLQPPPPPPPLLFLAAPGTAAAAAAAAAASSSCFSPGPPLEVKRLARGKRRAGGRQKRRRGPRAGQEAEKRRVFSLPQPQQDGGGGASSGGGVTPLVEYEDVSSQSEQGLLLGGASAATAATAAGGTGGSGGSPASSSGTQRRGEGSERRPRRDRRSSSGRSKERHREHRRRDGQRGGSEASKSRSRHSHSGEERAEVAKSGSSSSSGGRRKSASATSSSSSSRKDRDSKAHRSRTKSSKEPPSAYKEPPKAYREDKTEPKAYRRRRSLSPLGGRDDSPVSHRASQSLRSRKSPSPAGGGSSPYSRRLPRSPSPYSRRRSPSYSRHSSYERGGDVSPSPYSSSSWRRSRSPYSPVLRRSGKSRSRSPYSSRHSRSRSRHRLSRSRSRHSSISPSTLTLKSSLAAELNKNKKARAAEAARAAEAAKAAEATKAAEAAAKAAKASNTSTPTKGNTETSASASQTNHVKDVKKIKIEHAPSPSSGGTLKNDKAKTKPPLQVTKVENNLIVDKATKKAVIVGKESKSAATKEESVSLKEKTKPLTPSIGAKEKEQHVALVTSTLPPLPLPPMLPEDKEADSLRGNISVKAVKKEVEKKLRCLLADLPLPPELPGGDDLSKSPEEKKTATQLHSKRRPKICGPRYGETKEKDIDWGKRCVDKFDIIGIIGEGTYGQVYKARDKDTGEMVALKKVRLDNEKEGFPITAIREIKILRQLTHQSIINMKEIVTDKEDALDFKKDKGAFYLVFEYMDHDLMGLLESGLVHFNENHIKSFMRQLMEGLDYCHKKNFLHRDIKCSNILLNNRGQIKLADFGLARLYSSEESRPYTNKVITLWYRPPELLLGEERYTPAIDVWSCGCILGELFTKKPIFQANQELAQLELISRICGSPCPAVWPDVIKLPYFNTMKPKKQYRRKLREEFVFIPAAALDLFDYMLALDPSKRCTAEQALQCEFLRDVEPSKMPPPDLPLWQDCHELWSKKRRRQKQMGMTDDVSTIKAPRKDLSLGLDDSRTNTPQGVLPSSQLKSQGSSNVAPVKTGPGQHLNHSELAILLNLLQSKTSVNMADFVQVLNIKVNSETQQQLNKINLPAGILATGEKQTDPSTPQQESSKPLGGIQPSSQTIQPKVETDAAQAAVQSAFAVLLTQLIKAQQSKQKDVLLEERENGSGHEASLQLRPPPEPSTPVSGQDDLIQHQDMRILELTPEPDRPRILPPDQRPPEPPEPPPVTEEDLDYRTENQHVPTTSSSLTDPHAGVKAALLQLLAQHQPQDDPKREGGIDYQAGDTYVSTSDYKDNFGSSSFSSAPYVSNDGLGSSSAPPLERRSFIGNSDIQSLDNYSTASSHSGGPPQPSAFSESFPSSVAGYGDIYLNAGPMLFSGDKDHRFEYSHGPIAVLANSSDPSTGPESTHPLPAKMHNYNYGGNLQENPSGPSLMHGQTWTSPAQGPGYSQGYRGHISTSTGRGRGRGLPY
T1 sequence (O75909 whole entry partner): as the sequence (O75909 whole entry partner) above

For N#Cc1ccc(O[C@H]2CC[C@H](NC(=O)c3ccc(N4CCC(CN5CCN(c6cc7c(cc6F)C(=O)N(C6CCC(=O)NC6=O)C7=O)CC5)CC4)nn3)CC2)cc1Cl (stereo partly drawn) [ARV-110], the oral bioavailability [1] is listed as “good oral bioavailability”.

In the case of N.N.[Cl][Pt][Cl] [Cisplatin, cisplatin], the “interaction with ZLC491 in dose–response assays” value (MDA-MB-231 cells; MDA-MB-231 cells, 5 days) is reported as “potent synergy”.

O=C(c1cc(Cc2n[nH]c(=O)c3ccccc23)ccc1F)N1CCN(C(=O)C2CC2)CC1 [Olaparib, olaparib] showed an IC50 (MDA-MB-231 cells; Homo sapiens, 120 h, drug A alone, starting concentration 25 μM, MDA-MB-231, 5 days, read-out: IC50 (μM), Drug A: ZLC491 25μM: 0μM) of 7.24 µM.

With CN1C(=O)CCC(N2C(=O)c3cc(F)c(N4CCC(N5CCN(c6ccc(N(C(=O)NCc7ccccc7)[C@H]7CC[C@H](Nc8ccc(C#N)cn8)CC7)cc6)CC5)CC4)cc3C2=O)C1=O (stereo partly drawn) [ZLC491N, 3-Benzyl-1-((1r,4r)-4-((5-cyanopyridin-2-yl)amino)cyclohexyl)-1-(4-(4-(1-(6-fluoro-2-(1-methyl-2,6-dioxopiperidin-3-yl)-1,3-dioxoisoindolin-5-yl)piperidin-4-yl)piperazin-1-yl)phenyl)urea] the “degradative effect on CDK12/13” value (CDK12/13) was “no degradative effect” and the antiproliferative effects [2] was “no antiproliferative effects”.

In the case of N#Cc1ccc(N[C@H]2CC[C@H](N(C(=O)NCc3ccccc3)c3ccc(N4CCN(C(=O)CNc5ccc6c(c5)C(=O)N(C5CCC(=O)NC5=O)C6=O)CC4)cc3)CC2)nc1 (stereo partly drawn) [compound 3], the “Protein Degradation (%DMSO control, 0.3 μM) CDK12” value (CDK12) is given as 75%, the “Protein Degradation (%DMSO control, 0.3 μM) CDK13” value (CDK13) is given as 84% and the clearance [3] is given as “high”. For the same compound, the oral bioavailability [3] was “not orally bioavailable; also recorded: nondetectable”.
